How the values were obtained:
[1] = tested on: foreskin fibroblasts; test: ICAM-1 cell-ELISA (O.D. 492); assay type: cell-based, human
[2] = tested on: human lung fibroblastic cells; test: Response of lung fibroblastic cells to the fibrinopeptide; assay type: cell-based
Excerpt: The peptide of the invention is believed to play a role in inflammatory lung diseases in which fibrin deposition is also known to occur. My research has proven that human lung fibroblastic cells are also responsive to the fibrinopeptide, and under its influence, will express selective pro-inflammatory molecules on the cell surface and will secrete pro-inflammatory mediators, such as cytokines and chemical attractants for immune cells.

[3] = tested on: RA synovial fibroblasts; test: ICAM-1 cell-ELISA (O.D. 492); assay type: cell-based, human; settings: for ICAM-1 O.D. 492 / ICAM-1 expression O.D. 492: overnight; for ICAM-1 O.D. 492: IL-1 0.5 ng/ml, GPRP or GPRP-amide 1 mg/ml, fibrinogen receptor peptide 0.1 mg/ml, FPA, FPB 10^−4 M; for ICAM-1 expression O.D. 492: fibrin clots 0.6 mg/ml or GPRP 1 mg/ml, mean ± SD, triplicate
[4] = tested on: RA derived synovial cells; test: In vitro T cell adhesion assay; assay type: cell-based, human; settings: ± SD, triplicate wells
[5] = tested on: endothelial cells; test: Fibrin co-culture with endothelial cells; assay type: cell-based
Excerpt: (§1) Synthetic peptides modeled after these “knobs” are able to inhibit fibrin polymerization by covering up the “holes” on the gamma chains and are commercially available.

[6] = tested on: synovial fibroblast lines; test: V-CAM-1 expression on synovial lines; assay type: cell-based, human; settings: in response to the peptide
[7] = tested on: OA derived synovial cells; test: In vitro T cell adhesion assay; assay type: cell-based, human; settings: OA line 15, ± SD, triplicate wells
[8] = tested on: synovial cells from patients with osteoarthritis (OA); test: ICAM-1 ELISA (O.D. 492); assay type: cell-based, human; settings: OA line; overnight; IL-1 0.5 ng/ml, GPRP or GPRP-amide 1 mg/ml, fibrinogen receptor peptide 0.1 mg/ml, FPA, FPB 10^−4 M
[9] = tested on: RA synovial cell lines; test: Flow cytometry analysis of ICAM-1 expression; assay type: cell-based, human
[10] = tested on: foreskin fibroblasts; test: GRO-alpha ELISA on cell culture supernatants; assay type: cell-based, human; settings: for Increase in GRO-alpha secretion: foreskin FB
[11] = tested on: foreskin fibroblast cells; test: In vitro T cell adhesion assay; assay type: cell-based, human; settings: Foreskin line, ± SD, triplicate wells
[12] = tested on: fibrin polymerization; test: Inhibition of fibrin polymerization; assay type: biochemical; settings: applicant's studies of fibrin co-culture (Reference 19)
Chain of fibrin polymerization (P02679 27-453): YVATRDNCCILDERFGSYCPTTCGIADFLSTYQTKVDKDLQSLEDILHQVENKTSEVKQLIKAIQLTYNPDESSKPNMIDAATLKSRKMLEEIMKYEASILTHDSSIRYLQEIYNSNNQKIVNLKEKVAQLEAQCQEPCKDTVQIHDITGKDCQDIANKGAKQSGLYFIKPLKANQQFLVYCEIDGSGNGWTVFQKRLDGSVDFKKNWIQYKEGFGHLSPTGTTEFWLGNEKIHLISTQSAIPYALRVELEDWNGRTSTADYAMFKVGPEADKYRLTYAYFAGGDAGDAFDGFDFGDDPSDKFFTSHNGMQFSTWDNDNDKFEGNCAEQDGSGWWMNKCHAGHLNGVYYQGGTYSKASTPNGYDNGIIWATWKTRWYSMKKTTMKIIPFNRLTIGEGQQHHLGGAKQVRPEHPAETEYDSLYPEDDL
Chain of fibrin polymerization (P02671 20-639 isoform P02671-2 partner limits assumed): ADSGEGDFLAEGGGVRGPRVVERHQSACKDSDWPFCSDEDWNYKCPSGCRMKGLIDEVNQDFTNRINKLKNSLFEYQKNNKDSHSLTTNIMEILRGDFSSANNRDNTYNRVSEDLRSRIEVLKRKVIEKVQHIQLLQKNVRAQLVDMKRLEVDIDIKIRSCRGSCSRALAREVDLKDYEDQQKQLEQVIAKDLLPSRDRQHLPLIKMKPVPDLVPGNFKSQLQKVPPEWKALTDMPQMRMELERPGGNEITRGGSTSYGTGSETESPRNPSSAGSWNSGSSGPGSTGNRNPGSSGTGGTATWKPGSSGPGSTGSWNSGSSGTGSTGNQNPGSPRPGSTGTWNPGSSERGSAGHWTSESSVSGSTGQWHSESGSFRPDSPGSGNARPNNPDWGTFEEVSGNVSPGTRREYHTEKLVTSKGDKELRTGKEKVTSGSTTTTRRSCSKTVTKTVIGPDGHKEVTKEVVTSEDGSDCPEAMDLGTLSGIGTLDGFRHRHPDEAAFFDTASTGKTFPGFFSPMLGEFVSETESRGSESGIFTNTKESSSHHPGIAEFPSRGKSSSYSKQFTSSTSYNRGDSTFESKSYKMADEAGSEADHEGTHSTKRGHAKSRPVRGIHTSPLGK
Chain of fibrin polymerization (P02675 45-491 partner limits assumed): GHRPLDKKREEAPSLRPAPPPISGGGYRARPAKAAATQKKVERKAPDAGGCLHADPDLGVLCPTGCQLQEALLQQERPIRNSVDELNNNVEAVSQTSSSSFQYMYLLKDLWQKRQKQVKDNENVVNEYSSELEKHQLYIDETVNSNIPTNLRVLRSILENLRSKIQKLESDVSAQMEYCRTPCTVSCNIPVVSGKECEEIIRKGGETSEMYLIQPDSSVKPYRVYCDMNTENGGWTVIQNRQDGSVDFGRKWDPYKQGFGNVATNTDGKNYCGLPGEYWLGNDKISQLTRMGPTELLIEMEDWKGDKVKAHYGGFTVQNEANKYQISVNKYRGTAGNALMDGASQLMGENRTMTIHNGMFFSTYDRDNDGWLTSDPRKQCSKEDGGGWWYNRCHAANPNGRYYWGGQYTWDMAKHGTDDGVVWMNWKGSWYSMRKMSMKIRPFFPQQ
Excerpt: as §1
For example, changing Gly1 to anything else destroys its inhibitory action as there appears to be no extra “room” for a side chain in the gamma chain “hole” into which it must fit. However, as noted below, amino acid Pro4 functions differently.

[13] = tested on: RA synovial fibroblasts; test: IL-6 ELISA on cell supernatants; assay type: cell-based, human; settings: overnight with GPRP
[14] = tested on: foreskin fibroblasts; test: IL-8 ELISA on cell culture supernatants; assay type: cell-based, human; settings: 1 mg/ml GPRP
[15] = tested on: RA synovial fibroblasts; test: IL-8 ELISA on cell culture supernatants; assay type: cell-based, human; settings: for IL-8: 1 mg/ml GPRP
Experimental: (§2) I used commercial ELISA kits to assay cell culture supernatants of RA fibroblasts that were cultured for both 24 and 48 hours with or without peptide.

[16] = tested on: Synovial cells; test: SAC competition assay by flow cytometry; assay type: binding, human
Excerpt: Thus, labeled peptide could facilitate the isolation, identification and characterization of its receptor, through standard immunological techniques such as immunohistochemistry, flow cytometry and immunoprecipitation.

[17] = tested on: RA synovial fibroblasts; test: GRO-alpha ELISA on cell culture supernatants; assay type: cell-based, human
Experimental: as §2

[18] = tested on: human foreskin fibroblasts; test: Flow cytometry analysis of ICAM-1 expression; assay type: cell-based; settings: GPRP 1 mg/ml
[19] = tested on: foreskin fibroblasts; test: IL-6 ELISA on cell supernatants; assay type: cell-based, human; settings: overnight with GPRP
[20] = tested on: synovial cells; test: RT-PCR of IL-6 gene expression; assay type: cell-based; settings: versus controls
[21] = RA line 4, fibrin clot 0.6 mg/ml or GPRP 1 mg/ml
[22] = RA line 9, fibrin clot 0.6 mg/ml or GPRP 1 mg/ml

Gly-Pro-Arg-Pro [GPRP] was tested, and the “ICAM-1 OD 492” value ([1]; FF-#1, GPRP 0.10 mg/ml overnight) was 0.92 ± .02, the “ICAM-1 OD 492” value ([1]; FF-#1, GPRP 0.30 mg/ml overnight) was 0.99 ± .01 and the “ICAM-1 OD 492” value ([1]; FF-#1, GPRP 1.00 mg/ml overnight) was 1.02 ± .01. For the same substance, the “ICAM-1 OD 492” value ([1]; FF-#1, GPRP .001 mg/ml overnight) was 0.92 ± .01, the “ICAM-1 OD 492” value ([1]; FF-#1, GPRP .003 mg/ml overnight) was 0.95 ± .06 and the “ICAM-1 OD 492” value ([1]; FF-#1, GPRP .010 mg/ml overnight) was 0.93 ± .03. For the same substance, the “ICAM-1 OD 492” value ([1]; FF-#1, GPRP .030 mg/ml overnight) was 0.94 ± .05, the “ICAM-1 OD 492” value ([1]; FF-#2, GPRP 0.10 mg/ml overnight) was “.72 ± .02” and the “ICAM-1 OD 492” value ([1]; FF-#2, GPRP 0.30 mg/ml overnight) was “.72 ± .03”. For the same substance, the “ICAM-1 OD 492” value ([1]; FF-#2, GPRP 1.00 mg/ml overnight) was “.78 ± .04”, the “ICAM-1 OD 492” value ([1]; FF-#2, GPRP .001 mg/ml overnight) was “.69 ± .02” and the “ICAM-1 OD 492” value ([1]; FF-#2, GPRP .003 mg/ml overnight) was “.71 ± .04”. For the same substance, the “ICAM-1 OD 492” value ([1]; FF-#2, GPRP .010 mg/ml overnight) was “.71 ± .02”, the “ICAM-1 OD 492” value ([1]; FF-#2, GPRP .030 mg/ml overnight) was “.70 ± .02” and the “ICAM-1 expression O.D. 492” value ([1]; Foreskin fibroblasts, overnight, fibrin clots 0.6 mg/ml, GPRP 1 mg/ml or interferon γ 200 U/ml, mean ± SD) was 0.55 ± .05. The “ICAM-1 O.D. 492” value ([1]; Foreskin line, overnight, IL-1 0.5 ng/ml, GPRP or GPRP-amide 1 mg/ml, fibrinogen receptor peptide 0.1 mg/ml, FPA, FPB 10^−4 M) was 0.79 ± .02, the “Responsiveness of lung fibroblastic cells (surface pro-inflammatory molecules, secreted mediators)” value [2] was “responsive” and the ICAM-1 induction ([3]; GPRP at 0.01 mg/ml) was “not to be significant”. For the same substance, the ICAM-1 induction ([3]; GPRP at 1.0, 0.5, and 0.1 mg/ml) was “significant induction”, the “ICAM-1 O.D. 492” value ([3]; RA line 1) was 1.38 ± .16 and the “ICAM-1 O.D. 492” value ([3]; RA line 2) was 0.98 ± .03. For the same substance, the “ICAM-1 expression O.D. 492” value ([3]; RA line 4) was 1.04 ± .02, the “ICAM-1 expression O.D. 492” value ([3]; RA line 5) was 1.10 ± .03 and the “ICAM-1 expression O.D. 492” value ([3]; RA line 9) was 0.98 ± .15. The “ICAM-1 OD 492” value ([3]; RA#11, GPRP 0.10 mg/ml overnight) was “.37 ± 0”, the “ICAM-1 OD 492” value ([3]; RA#11, GPRP 0.30 mg/ml overnight) was “.46 ± .05” and the “ICAM-1 OD 492” value ([3]; RA#11, GPRP 1.00 mg/ml overnight) was “.59 ± .05”. For the same substance, the “ICAM-1 OD 492” value ([3]; RA#11, GPRP .001 mg/ml overnight) was “.24 ± .05”, the “ICAM-1 OD 492” value ([3]; RA#11, GPRP .003 mg/ml overnight) was “.25 ± .03” and the “ICAM-1 OD 492” value ([3]; RA#11, GPRP .010 mg/ml overnight) was “.24 ± .05”. The “ICAM-1 OD 492” value ([3]; RA#11, GPRP .030 mg/ml overnight) was “.31 ± .02”, the “ICAM-1 OD 492” value ([3]; RA#12, GPRP 0.10 mg/ml overnight) was 0.76 ± .03 and the “ICAM-1 OD 492” value ([3]; RA#12, GPRP 0.30 mg/ml overnight) was 1.09 ± .06. For the same substance, the “ICAM-1 OD 492” value ([3]; RA#12, GPRP 1.00 mg/ml overnight) was 1.42 ± .08, the “ICAM-1 OD 492” value ([3]; RA#12, GPRP .001 mg/ml overnight) was 0.51 ± .01 and the “ICAM-1 OD 492” value ([3]; RA#12, GPRP .003 mg/ml overnight) was 0.53 ± .01. For the same substance, the “ICAM-1 OD 492” value ([3]; RA#12, GPRP .010 mg/ml overnight) was 0.57 ± .02, the “ICAM-1 OD 492” value ([3]; RA#12, GPRP .030 mg/ml overnight) was 0.62 ± .03 and the ICAM-1 expression ([3]; more than seven different RA fibroblast lines) was “consistently increased expression of ICAM-1”. For the same substance, the “Adherent T cell numbers” value ([4]; RA line 7, GPRP 0.1 mg/ml overnight) was 184 ± 58, the “Adherent T cell numbers” value ([4]; RA line 7, GPRP 1 mg/ml overnight) was 153 ± 54 and the “Adherent T cell numbers” value ([4]; RA line 8, GPRP 0.1 mg/ml overnight) was 99 ± 18. The “Adherent T cell numbers” value ([4]; RA line 8, GPRP 1 mg/ml overnight) was 97 ± 10, the “Direct effects on endothelial cells” value [5] was “no direct effects” and the “Lines tested that upregulated V-CAM-1 expression” value [6] was “about 50 % of the lines tested”. For the same substance, the “Adherent T cell numbers” value ([7]; GPRP 0.1 mg/ml overnight) was 92 ± 27, the “Adherent T cell numbers” value ([7]; GPRP 1 mg/ml overnight) was 113 ± 44 and the “ICAM-1 O.D. 492” value [8] was 0.85 ± .08. For the same substance, the ICAM-1 % positive [9, 21] was 87.0%, the “ICAM-1 MFC” value [9, 21] was 2.73 and the ICAM-1 % positive ([9]; RA line 5, GPRP 1 mg/ml) was 74.5%. The “ICAM-1 MFC” value ([9]; RA line 5, GPRP 1 mg/ml) was 2.00, the ICAM-1 % positive ([9]; RA line 6, GPRP 1 mg/ml) was 95.0% and the “ICAM-1 MFC” value ([9]; RA line 6, GPRP 1 mg/ml) was 9.19. For the same substance, the ICAM-1 % positive [9, 22] was 80.1%, the “ICAM-1 MFC” value [9, 22] was 3.62 and the GRO-alpha ([10]; Foreskin fibroblasts, 1 mg/ml GPRP) was 470 pg/mL. The “GRO-alpha Fold Increase” value ([10]; Foreskin fibroblasts, 1 mg/ml GPRP, versus control) was 1.2X, the “Increase in GRO-alpha secretion” value ([10]; forty-eight hours) was 1.2 fold and the “Increase in GRO-alpha secretion” value ([10]; twenty-four hours) was 1.2 fold. The “Adherent T cell numbers” value ([11]; GPRP 0.1 mg/ml overnight) was 51 ± 3, the “Adherent T cell numbers” value ([11]; GPRP 1 mg/ml overnight) was 54 ± 11 and the “Inhibition of fibrin polymerization” value [12] was “good inhibitor of fibrin polymerization”. The IL-6 ([13]; RA #1) was 2400 pg/mL, the “IL-6 INCREASE over control” value ([13]; RA #1) was 1.50X and the IL-6 ([13]; RA #11) was 1700 pg/mL. The “IL-6 INCREASE over control” value ([13]; RA #11) was 6.18X, the IL-6 ([13]; RA #16) was 11100 pg/mL and the “IL-6 INCREASE over control” value ([13]; RA #16) was 3.70X. For the same substance, the IL-6 ([13]; RA #18) was 940 pg/mL, the “IL-6 INCREASE over control” value ([13]; RA #18) was 1.90X and the IL-8 ([14]; 24 hr) was 1,840 pg/ml. The IL-8 ([14]; 48 hr) was 1,200 pg/ml, the “Increase of IL-8 production” value ([15]; RA Line 1, forty-eight hours) was “fifteen” and the “Increase of IL-8 production” value ([15]; RA Line 1, twenty-four hours) was 12.6 fold. The “Increase of IL-8 production” value ([15]; RA Line 2, forty-eight hours) was “ten”, the “Increase of IL-8 production” value ([15]; RA Line 2, twenty-four hours) was “ten” and the IL-8 ([15]; RA line 1, 24 hr) was 16,000 pg/ml. For the same substance, the IL-8 ([15]; RA line 1, 48 hr) was 17,500 pg/ml, the IL-8 ([15]; RA line 4, 24 hr) was 9,000 pg/ml and the IL-8 ([15]; RA line 4, 48 hr) was 6,800 pg/ml. The “Competition with biotin-labeled SAC for binding to human synovial fibroblasts” value ([16]; unlabeled competitor) was “can compete”, the “Mean (fluorescence of bound SAC[KBtn])” value ([16]; unlabeled competitor 2.5 mg for 3 hours, then labeled SAC[KBtn] for 1 hour, Avidin-FITC) was 33.58 and the GRO-alpha Fold Increase ([17]; RA fibroblasts, visual observation of developed ELISA plates) was “at least as much as was seen for IL-8”. The GRO-alpha ([17]; RA line 8, 1 mg/ml GPRP) was 8500 pg/mL, the “GRO-alpha Fold Increase” value ([17]; RA line 8, 1 mg/ml GPRP, versus control) was 21X and the ICAM-1 % positive [18] was 86.7%. The “ICAM-1 MFC” value [18] was 2.26, the IL-6 [19] was 215 pg/mL and the IL-6 gene expression [20] was “significantly more IL-6 gene expression than controls”.

From US6908899B2, “Pro-inflammatory fibrinopeptide” (U.S. Dept. of Veterans Affairs, priority 2001, dated 2005)
